Results reported in patent US20060205724A1, “Antagonizing nk-1 receptors inhibits consumption of substances of abuse” (The Regents of the University of California, priority 2002, published 2006).

Tests used:
rats = test: loss of righting reflex (measure of intoxication) in rats administered ethanol; type: in vivo, rat; settings: rats given 3 g/kg of ethanol; vs vehicle-treated animals
From the text: FIG. 1 illustrates the effect of an NK1 receptor antagonist (LY303870) on the loss of righting reflex in rats administrated ethanol at 3 and 4 g/kg. *P<0.05 vs vehicle-treated animals. n=9-10 per group.

rat = test: self-administration of ethanol by a rat (ethanol intake, water intake, ethanol preference); type: in vivo
From the text: The graphs show ethanol intake, water intake, and ethanol preference.
FIG. 2 illustrates the effect of administration of the NK1 receptor antagonist LY303870 on self-administration of alcohol by a rat.
Without being bound to a particular theory, it is believed that this effect may be due to failure of WIN 51,708 to cross the blood-brain barrier.

SMILES | loss of righting reflex (time the test animals were "drunk") (rats) | ethanol preference (ethanol as compared to water) (rat) | self-administration of ethanol (rat; 2.5 mg/kg or greater) | ethanol consumption (rat)
COc1ccccc1CN(C[C@@H](Cc1c[nH]c2ccccc12)NC(=O)CN1CCC(N2CCCCC2)CC1)C(C)=O [LY303870] | reduced the time the test animals were “drunk” | reduced preference for ethanol as compared to water | significant reduction in self-administration of ethanol | –
C#C[C@]1(O)CC[C@H]2[C@@H]3CC[C@H]4Cc5nc6nc7ccccc7n6cc5C[C@]4(C)[C@H]3CC[C@@]21C [WIN 51,708] | – | did not alter preference | – | did not have a significant effect
